Here are results for 13 compounds from patent EP0590563A1, “Biotin amides, a process for their preparation and therapeutical compositions containing them as the active principles for the treatment of diabetes and relative complicating diseases” (LIFEGROUP S.p.A., priority 1992, dated 1994).

Series [1] in a line: solubility in water. The series is classed as physicochemical. To be noted: for solubility in water: result in words.
Series [2] can be described thus: solubility in organic solvents. Format: physicochemical. To be noted: organic solvent or mixture.
The subject of series [3] is genetically diabetic mice KK. As to conditions: 2mg/kg for 14 days; cited from earlier work.
The subject of series [4] is neuropathy. To be noted: intramuscular for 6 weeks, with oral daily dose of 5 mg for about 2 years; cited from earlier work.
The subject of series [5] is diabetic patients. To be noted: 16mg/die for 1 week, insulin treatment interrupted; cited from earlier work.
The conditions of series [6]: background statement, in words; cited from earlier work.
The subject of series [7] is diabetes induced by streptozotocin. The series can be described thus: Experimental diabetes induced by streptozotocin. The series is classed as in vivo, male Wistar rats. To be noted: for AcAc: Aceto Acetate. As to the method: The derivatives are then tested in order to define their biologic activity in experimental conditions of hyperglycemia induced both by food absence and by diabetes induced by streptozotocin. Hepatic glucokinase activity is examined in the experimental condition of food absence. Glycemia, insulinemia and the levels of Aceto Acetate (Ac.Ac.) are examined in the diabetes induced by streptozotocin.
10 male Wistar rats (200 g) are divided into 4 groups, the first group is composed by the controls, to the remaining groups streptozotocin is injected by intraperitoneal route (80 mg/kg). The third group is furthermore treated with biotin (3 mg/kg) by intraperitoneal route, and the fourth group with biotinyl ethanolamide (3 mg/kg) again by intraperitoneal route. The treatment is repeated for three days, then a blood sample is taken for analysis on the fifth day from the initial treatment.

Series [8] relates to hepatic glucokinase. The series can be described thus: Ex vivo hepatic glucokinasic activity, Experiment A. The series is classed as in vivo, Wistar rats. To be noted: for Glucokinasic activity: 3 mg/kg i.p. after 24 hours without food, sacrifice after 6 hours, mean ± stan. deviation. As for the experimental part: This experiment is carried out following to Chauhan et al. process (J. Biol. Chem. 266, 10035, 1991), according to this process, hepatic glucokinase in the rat, which activity is depressed by food absence is reactivated by the biotin action. 15 Wistar rats weighing on average 250 g are divided into three groups, the first one represent the controls, the second one is treated by intraperitoneal route with biotin (3 mg/kg) and the third group with biotinylethanolamine (3 mg/kg) again by intraperitoneal route. Rats are treated after 24 hours without food and after 6 hours are sacrificed by decapitation. Livers are homogenized in 5 volumes 50 mM Tris at pH 7, 0.15 M KCl, 5 mM EGTA, 4 mM MgCl₂, and 2 mM dithiothreitol and centrifugated at 100.000 x g for 60 minutes. The surnatant, frozen to -80 °C, is used for the analyses, after identifying proteins according to Bradford method (Anal. Biochem. 72, 248, 1976). Glucokinase is dosed by spectrophotometry according to Dakshinamurti et al. (Can. J. Biochem. 46, 75, 1968) with the following results: […]

Series [9] concerns hepatic glucokinase. The series can be described thus: Ex vivo hepatic glucokinasic activity, Experiment B. As to conditions: 2 mg/kg i.p., rats without food for 24 hours, 3 hours after the treatment. Format: in vivo, Sprague Dawley rat. As to the method: Also this experiment, like the previous one, is carried out by following Chauhan et al. process (J. Biol. Chem. 266, 10035, 1991), according to this process, hepatic glucokinase in the rat, which activity is depressed by food absence and it is reactivated by the biotin action.
Sprague Dawley rat weighing on average 260 g left without food for 24 hours, are divided into 15 groups, each of 13 groups are respectively intraperitoneally treated with 2 mg/kg of one of the compounds of the present invention hereinbelow reported in Table 1 or with the same dosage of biotin, all these substances being previously dissolved in physiological solutions. The obtained results are compared with those of the two groups corresponding to normal rats feeded ad libitum and with untreated rats left without food for 24 hours, all the animals had free admission to water.
3 hours after the treatment the rats are sacrificed by cerebral displacement. […] The homogenates are centrifugated at 100.000 x g for 60 minutes.Their proteic concentration is determined according to the above mentioned Bradford method (Anal. Biochem. 72, 248, 1976).
Glucokinase activity is evaluated according to Dakshinamurti et al. (Can. J. Biochem. 46, 75, 1968), and expressed as arbitrary units /proteic concentration of the samples.

Where [10] appears, read: streptozotocin 80 mg/kg i.p., test substance 3 mg/kg i.p. for three days, blood sample on the fifth day.
Where [11] appears, read: result in words, 3 mg/kg i.p., streptozotocin rats.
Where [12] appears, read: aqueous buffer, in 0.1M phosphate buffer at pH 7.4.

The solubility is the dissolved amount per volume that the medium holds.

Molecules are shown by their SMILES. Where two headings read alike, the source gives them in different places.

Consider `O=C(CCCC[C@@H]1SC[C@@H]2NC(=O)N[C@@H]21)NC1CCCCC1` [Example 9, N-β-biotinyl-aminocyclohexane], for which, in series [1] (water), the solubility in water result is “poorly soluble”. Besides, in series [2] (in DMSO), the solubility is > 10000 µg/mL.

On to `O=C(CCCC[C@@H]1SC[C@@H]2NC(=O)N[C@@H]21)NCc1ccc([N+](=O)[O-])cc1` [Example 10, N-β-biotinyl-4-nitrobenzylamine], for which the solubility in water result in series [1] (water) is recorded as “poorly soluble”. Moreover, the solubility in [2] (in DMSO) was > 10000 µg/mL.

In the case of `O=C(O)CCCC[C@@H]1SC[C@@H]2NC(=O)N[C@@H]21` [Biotin, biotin], in [3], the glucose tolerance entry is reported as “improved sensibly”. Further, in series [4], the “conduction velocity at the level of the motor nerves and of the action sensory potentials” value was “slight improvement”; the subjective neurologic symptoms result was “marked improvement”. Also, in series [5], the hematic glucose rate entry is listed as “significant reduction”. The solubility in water result in series [6] is “poorly soluble in water”. Further, in series [7] (setting [10]), the AcAc turned out to be 0 nmol/L, the Glycemia was 7.4 ± 0.9 mmol/L and the insulinemia was found to be 25.1 ± 1.5 mU/l. For the same compound, in series [7] (setting [11]), the Glycemia entry was “normalized” and the insulinemia entry is on record as “active”. Further, in series [8], the Glucokinasic activity was determined as 3.96 ± 0.70 U./min/protein mg. This compound showed a glucokinase activity in [9] of 3.662± 0.280 UA/mg proteins.

On to `CCCCNC(=O)CCCC[C@@H]1SC[C@@H]2NC(=O)N[C@@H]21` [Example 8, N-β-biotinyl-1-aminobutane], for which the solubility in water entry in [1] (water) was “poorly soluble”. For the same compound, in series [2] (in DMSO), the solubility is > 10000 µg/mL.

For `N=C(N)NCCC[C@H](NC(=O)CCCC[C@@H]1SC[C@@H]2NC(=O)N[C@@H]21)C(=O)O` [Example 11, N-β-biotinyl-L-arginine], the solubility in series [1] (water) and in series [2] (in DMSO) was > 10000 µg/mL throughout.

Consider `CN=C(N)NCCC[C@H](NC(=O)CCCC[C@@H]1SC[C@@H]2NC(=O)N[C@@H]21)C(=O)O` [Example 2, N-β-biotinyl-N^G-methyl-L-arginine], for which the solubility in series [1] (water) and in series [2] (in DMSO) was > 10000 µg/mL throughout.

In the case of `O=C(CCCC[C@@H]1SC[C@@H]2NC(=O)N[C@@H]21)NCCCCO` [Example 5, N-β-biotinyl-4-amino-butanol], the solubility in series [1] (water) is > 5000 µg/mL; in series [2] (in DMSO) it was > 10000 µg/mL.

Take `O=C(CCCC[C@@H]1SC[C@@H]2NC(=O)N[C@@H]21)N[C@@H](CO)C(=O)O` [Example 7, N-β-biotinyl-L-serine]: the solubility in series [1] (setting [12]) and in [2] (in DMSO) was > 10000 µg/mL in each case.

For `O=C(CCCC[C@@H]1SC[C@@H]2NC(=O)N[C@@H]21)NCCO` [Example 1, N-β-biotinyl-ethanolamine], in [1] (water), the solubility was > 10000 µg/mL. Besides, the solubility in [2] (in DMSO) was > 10000 µg/mL. In series [7] (setting [10]), the AcAc is 0 nmol/L, the Glycemia stood at 6.0 ± 0.5 mmol/L and the insulinemia was found to be 23.5 ± 1.8 mU/l. For the same compound, in series [7] (setting [11]), the Glycemia result is listed as “normalized” and the insulinemia result is listed as “active”. The compound further gave a Glucokinasic activity in series [8] of 4.27 ± 0.45 U./min/protein mg. In addition, in [8] (result in words, after 6 hours, 3 mg/kg i.p.), the “Glucokinasic activity compared with biotin” value is reported as “more active than biotin”.

Regarding `O=C(CCCC[C@@H]1SC[C@@H]2NC(=O)N[C@@H]21)NCCNC(=O)CCCC[C@@H]1SC[C@@H]2NC(=O)N[C@@H]21` [Example 6, N,N'bis-(β-biotinyl)-ethylendiamine], the solubility in water entry in series [1] (water) is listed as “poorly soluble”. In addition, in series [2] (in hot DMSO), the solubility is > 2000 µg/mL.

Regarding `O=C(CCCC[C@@H]1SC[C@@H]2NC(=O)N[C@@H]21)NCc1ccccc1` [Example 4, N-β-biotinyl-benzylamine], the solubility in water result in series [1] (water) was “poorly soluble”. Further, the solubility in series [2] (in DMSO) and in series [2] (in ethanol) was > 10000 µg/mL throughout.

On to `O=C(CCCC[C@@H]1SC[C@@H]2NC(=O)N[C@@H]21)N[C@@H](CS)C(=O)O` [Example 12, N-β-biotinyl-L-cysteine], for which the solubility in [1] (setting [12]) and in series [2] (in DMSO) was > 10000 µg/mL throughout.

With `O=C1N[C@H]2[C@H](CS[C@H]2CCCCC(=O)N2CCN(CCO)CC2)N1` [Example 3, N¹-β-biotinyl-N⁴-(2-hydroxyethyl) piperazine hydrochlorate], the solubility in [1] (water) and in series [2] (in DMSO) was > 10000 µg/mL each time.
